US4882357A, “Novel N-(substituted-phenyl)-5-(substituted-2,5-dimethylphenoxy)-2,2-dimethylp entanamides” (Warner-Lambert Company, priority 1988, dated 1989)

What was measured:
[1] = target: T1, acyl-CoA:cholesterol acyltransferase (ACAT) (Oryctolagus cuniculus, UniProt G1SFD9); experiment: inhibition of esterification of cholesterol by ACAT (cholesteryl oleate formation), rabbit intestinal microsomal fraction; format: biochemical; conditions: endogenous cholesterol, exogenous 14C-oleoyl-CoA, read-out: IC50 (concentration of test compound required to inhibit cholesteryl oleate formation to 50% of control)
T1 construct: rabbit intestinal microsomal fraction; from tissue; host or cells: rabbit intestine, microsomal fraction
T1 sequence (G1SFD9 1-524): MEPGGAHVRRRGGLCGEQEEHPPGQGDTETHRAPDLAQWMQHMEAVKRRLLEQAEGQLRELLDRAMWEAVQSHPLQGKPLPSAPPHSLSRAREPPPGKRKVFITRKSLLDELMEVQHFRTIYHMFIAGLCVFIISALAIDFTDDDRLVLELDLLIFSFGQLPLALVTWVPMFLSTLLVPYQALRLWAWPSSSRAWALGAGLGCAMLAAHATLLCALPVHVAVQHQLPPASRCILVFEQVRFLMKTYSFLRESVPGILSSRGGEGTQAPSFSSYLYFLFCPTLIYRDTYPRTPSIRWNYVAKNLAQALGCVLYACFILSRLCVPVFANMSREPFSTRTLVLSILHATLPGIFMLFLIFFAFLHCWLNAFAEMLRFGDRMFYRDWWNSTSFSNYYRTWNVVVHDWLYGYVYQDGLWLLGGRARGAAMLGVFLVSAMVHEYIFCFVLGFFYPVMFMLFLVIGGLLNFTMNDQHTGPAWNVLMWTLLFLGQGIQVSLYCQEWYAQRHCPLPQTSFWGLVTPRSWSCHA
Protocol: The compounds of the present invention were tested for their ability to inhibit the esterification of cholesterol by the enzyme acyl-CoA:cholesterol acyltransferase (ACAT). The data in the table below is expressed as IC50 values, i.e., the concentration of test compound required to inhibit cholesteryl oleate formation to 50% of control.
The in vitro test employed is more fully described in Field, F. J. and Salome, R. G., Biochemica et Biophysica Acta, 712, pp 557-570 (1982). The assay evaluates the ability of a test compound to inhibit the esterification of cholesterol using endogenous cholesterol of a rabbit intestinal microsomal fraction and exogenous ^14 C-oleoyl-CoA as reactants.

[2] = system: HDL; experiment: elevation of HDL, test drug versus gemfibrozil; format: in vivo, rats; conditions: 50 mg/kg test drug vs 50 mg/kg gemfibrozil; 1 = as effective as gemfibrozil
Protocol: Additionally, the elevation of HDL is reported in the table as a ratio of the elevation of HDL effected by a dose of 50 mg/kg of the test drug divided by the elevation of HDL effected by a 50 mg/kg dose of gemfibrozil which is used as a control in each experiment. [formula] Thus, a figure of 1 means that the test drug was as effective as gemfibrozil in elevating HDL. […] The test procedure is described in U.S. Pat. No. 4,413,011.

[3] = system: patients with elevated cholesterol levels; conditions: cited from earlier work

Row | Structure (SMILES) | IC50 [1] [µM] | ratio of the elevation of HDL effected by test drug divided by the elevation of HDL effected by gemfibrozil [2] | effect on LDL and HDL ([3]; in words) | reduction of the rate of heart attack and sudden cardiac death ([3]; patients with elevated cholesterol levels, five years) [%]
1 | COC(=O)C(C)(C)CCCOc1cccc(NC(=O)C(C)(C)CCCOc2cc(C)ccc2C)c1 [Example 1m, 5-[3-[[5-(2,5-dimethylphenoxy)-2,2-dimethyl-1-oxopentyl]amino]phenoxy]-2,2-dimethylpentanoic acid, methyl ester] | 21 | 1.0 |  | 
2 | Cc1ccc(C)c(OCCCC(C)(C)C(=O)Nc2c(F)cc(F)cc2F)c1 [Example 1h, 5-(2,5-dimethylphenoxy)-2,2-dimethyl-N-(2,4,6-trifluorophenyl)pentanamide] | 0.8 | 0.74 |  | 
3 | CCCCCCOc1ccccc1NC(=O)C(C)(C)CCCOc1cc(C)ccc1C [Example 1f, 5-(2,5-dimethylphenoxy)-N[2-(hexyloxy)phenyl]-2,2-dimethylpentanamide] | 10 | 0.42 |  | 
4 | COc1ccc(NC(=O)C(C)(C)CCCOc2cc(C)ccc2C)cc1OC [Example 1c, N-(3,4-Dimethoxyphenyl)-5-(2,5-dimethylphenoxy)-2,2-dimethylpentanamide] | 3 | 1.10 |  | 
5 | COc1ccccc1NC(=O)C(C)(C)CCCOc1cc(C)ccc1C [Example 1, 5-(2,5-dimethylphenoxy)-N-(2-methoxyphenyl)-2,2-dimethylpentanamide] | 14 | 0.31 |  | 
6 | COc1cc(C)ccc1NC(=O)C(C)(C)CCCOc1cc(C)ccc1C [Example 1a, 5-(2,5-dimethylphenoxy)-N-(2-methoxy-4-methylphenyl)-2,2-dimethylpentanamide] | 6 | 0.80 |  | 
7 | COC(=O)C(C)(C)CCCOc1ccccc1NC(=O)C(C)(C)CCCOc1cc(C)ccc1C [Example 1l, 5-[2[[5-(2,5-dimethylphenoxy)2,2-dimethyl-1-oxopentyl]amino]phenoxy]-2,2-dimethylpentanoic acid, methyl ester] | 8 | 0.4 |  | 
8 | CCOC(=O)C=Cc1ccc(NC(=O)C(C)(C)CCCOc2cc(C)ccc2C)cc1 [Example 5, 3-[4-[[5-(2,5-Dimethylphenoxy)-2,2-dimethyl-1-oxopentyl]amino]phenyl]-2-propenoic acid, ethyl ester, reference compound] | 45 | 0.56 |  | 
9 | CCOc1ccccc1NC(=O)C(C)(C)CCCOc1cc(C)ccc1C [Example 1d, 5-(2,5-dimethylphenoxy)-N-(2-ethoxyphenyl)-2,2-dimethylpentanamide] | 5 | 1.08 |  | 
10 | Cc1ccc(C)c(OCCCC(C)(C)C(=O)Nc2ccc(F)cc2F)c1 [Example 1g, N-(2,4-Difluorophenyl)-5-(2,5-dimethylphenoxy)-2,2dimethylpentanamide] | 7 | 0.36 |  | 
11 | Cc1ccc(C)c(OCCCC(C)(C)C(=O)O)c1 [gemfibrozil] |  |  | both lowers LDL and elevates HDL | 34
12 | Cc1ccc(C)c(OCCCC(C)(C)C(=O)Nc2ccc(C)cc2OC(C)C)c1 [Example 1j, 5-(2,5-Dimethylphenoxy)-2,2-dimethyl-N-[4-methyl-2-(1-methylethoxy)phenyl]pentanamide] | 8 | 0.84 |  | 
13 | Cc1ccc(C)c(OCCCC(C)(C)C(=O)Nc2ccc3c(c2)OCO3)c1 [Example 1k, N-1,3-Benzodioxol-5-yl-5-(2,5-dimethylphenoxy)-2,2dimethylpentanamide] | 6 | 1.13 |  | 
14 | Cc1ccc(NC(=O)C(C)(C)CCCOc2cc(C)ccc2C)c(C)c1 [Example 1b, 5-(2,5-Dimethylphenoxy)-N-(2,4-dimethylphenyl)-2,2-dimethylpentanamide] | 8 | 1.29 |  | 
